How the values were obtained:
conditioned mice [1] = assay: Fear retention and extinction tests after fear conditioning (Example 4); format: in vivo, Mice C57BL/6
Procedure: (§1) Three-month-old mice (n=5-6/condition) were weighed and assigned to treatment groups. Mice were treated with vehicle or drugs, starting two h after fear conditioning and daily after behavioral testing until euthanasia. Mice received daily treatments with 1. PBS (phosphate buffer saline, pH 7.4) via intranasal; 2. Cotinine (10 mg/ml) dissolved in PBS via intranasal (IN Cot, 24 μl); 3. Krill oil dissolved in PBS, via intranasal (48 mg/ml, 24 μl); 4. Cotinine (10 mg/ml) plus krill oil dissolved in PBS, via intranasal (48 mg/ml, 24 μl); 5.
(§2) For intranasal delivery, mice were hand-restrained, placed in a supine position, and given two 12 μl drops of cotinine solutions, or PBS, into both nares consecutively. Mice were given an extra 12 μl treatment drop if the subject forcibly ejected or sneezed out the solution. Mice were held supine for 5-10 seconds after delivery to ensure that all fluid was inhaled.
Contextual fear conditioning was performed as described. The conditioning chamber used (33 cm×20 cm×22 cm) is surrounded by a sound-attenuating box with a camera connected to freeze frame software (MED Associates Inc.) and equipped to provide a background white noise (72 dB). The conditioning chamber contains in one side a speaker and in the opposite side has a 24V light, and a 36-bar insulated shock grid floor. To perform this test, each mouse was placed in the conditioning chamber for 2 min before the onset of a discrete tone (a sound that will last 30 seconds (sec) at 2,800 Hz and 85 dB). In the last two seconds of this tone, mice received a foot shock of 1 mA, kept in the conditioning chamber for 2 min and returned to their home cages. Between trials, the chamber was sanitized with 70% ethanol and dried. Freezing behavior was defined as the absence of all movement except the one needed for breathing was assessed using the FreezeView Software (MED Associates Inc.).
Fear retention and extinction experiments were performed as described, using the same cohorts of mice and reproduced in two separate experiments. To assess fear retention and mice underwent re-exposure to the conditioning chamber in the absence of an unconditioned stimulus (shock or auditory cues) for 3 minutes (min) in daily extinction trials. Freezing behavior was measured using the ANY-Maze® software (Stoelting CO, USA). The extinction trials were continued until the decrease in freezing behavior reached a stable level.

conditioned mice [2] = assay: Forced swim test after fear conditioning and extinction (Example 4); format: in vivo, Mice C57BL/6; conditions: FC mice after extinction; Tukey: cotinine p<0.001, combination p<0.005, sertraline p<0.05
Procedure: as §1, §2

CN[C@H]1CC[C@@H](c2ccc(Cl)c(Cl)c2)c2ccccc21.Cl [Sertraline, (1S,4S)-4-(3,4-dichlorophenyl)-1,2,3,4-tetrahydro-N-methyl-1-naphthalenamine hydrochloride, reference compound]
freezing behavior during daily extinction trials (speed of fear extinction) (conditioned mice [1]; 5 days of extinction, daily treatment): overall slower extinction of fear than controls | fear reaction (freezing) in the retention test (conditioned mice [1]; treatment started 2 h after FC, IN cotinine 10 mg/ml, IN KO 48 mg/ml, oral sertraline 3 mg/kg): no significant effects | depressive-like behavior (immobility) in the forced swim test (conditioned mice [2]): significantly decreased depressive-like behavior

Source: patent publication US11260050B2, “Combination of cotinine plus antioxidant for treatment-resistant depression and correction of astrocytes functional deficit induced by depression and other neuropathological” (UNIVERSIDAD SAN SEBASTIAN, priority 2017, dated 2022)
